Assay results from patent publication US10669268B2, “Bicyclic derivatives” (Hoffmann-La Roche Inc., priority 2012, dated 2020).

Target: ATX (human His-tagged) (Homo sapiens (Human), UniProt Q13822)
Assay: Human ATX enzyme inhibition assay (fluorescence quenching, MR121 substrate)
Format: biochemical
Conditions: 30 nM ATX, 1 μM MR121 substrate, 30° C., pH 8.0
In short: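 Fluorescence-quenching assay using MR121 substrate at 1 μM final, incubated 15 min at 30 °C. Buffer was 50 mM Tris-HCl pH 8.0 with 140 mM NaCl, 5 mM KCl, 1 mM CaCl2, 1 mM MgCl2 and 0.01% Triton X-100.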

Row | SMILES | IC50 [nM]
1 | CS(=O)(=O)c1cc(Cl)cc(COC(=O)N2C[C@@H]3CN(C(=O)c4ccc5[nH]nnc5c4)C[C@H]3C2)c1 [Example 4.03, (3aS,6aS)-5-(1H-benzotriazole-5-carbonyl)-hexahydro-pyrrolo[3,4-c]pyrrole-2-carboxylic acid 3-chloro-5-methanesulfonyl-benzyl ester] | 11
2 | Cc1cc(OC(F)(F)F)ccc1/C=C/C(=O)N1CC[C@@H]2CN(C(=O)c3ccc4[nH]nnc4c3)C[C@@H]2CC1 [Example 1.18, (E)-1-((3aR,8aS)-2-(1H-benzo[d][1,2,3]triazole-5-carbonyl)octahydropyrrolo[3,4-d]azepin-6(7H)-yl)-3-(2-methyl-4-(trifluoromethoxy)phenyl)prop-2-en-1-one] | 10
3 | N#Cc1ccc(/C=C/C(=O)N2CC[C@@H]3CN(C(=O)c4ccc5[nH]nnc5c4)C[C@@H]3CC2)cc1 [Example 15.11] | 13
4 | COC(c1cccc(COC(=O)N2C[C@@H]3CN(C(=O)c4ccc5[nH]nnc5c4)C[C@@H]3C2)c1)C(F)(F)F (stereo partly drawn) [Example 4.20, cis-5-(1H-benzotriazole-5-carbonyl)-hexahydro-pyrrolo[3,4-c]pyrrole-2-carboxylic acid 3-(2,2,2-trifluoro-1-methoxy-ethyl)-benzyl ester] | 722
5 | O=C1N[C@@H]2CCN(C(=O)N3C[C@H]4CN(C(=O)/C=C/c5ccc(OC(F)(F)F)cc5)C[C@@H]4C3)C[C@H]2O1 [Example 15.54] | 280
6 | O=C(c1ccc2[nH]nnc2c1)N1CC[C@@H]2CN(c3nnc(-c4ccc(Cl)cc4)o3)C[C@H]2C1 (relative stereo) [Example 14, (1H-Benzotriazol-5-yl)-{trans-2-[5-(4-chloro-phenyl)-[1,3,4]oxadiazol-2-yl]-octahydro-pyrrolo[3,4-c]pyridin-5-yl}-methanone] | 926
7 | O=C(OCCC1CCCCC1)N1C[C@@H]2CN(C(=O)c3ccc4[nH]nnc4c3)C[C@@H]2C1 [Example 4.22, (3aR,6aS)-2-cyclohexylethyl 5-(1H-benzo[d][1,2,3]triazole-5-carbonyl)hexahydropyrrolo[3,4-c]pyrrole-2(1H)-carboxylate] | 1380
8 | O=C(CCc1cc(F)cc(C(F)(F)F)c1)N1C[C@@H]2CN(C(=O)c3ccc4[nH]nnc4c3)C[C@@H]2C1 [Example 15.03] | 362
9 | COc1ccc(/C=C/C(=O)N2CC[C@@H]3CN(C(=O)c4ccc5[nH]nnc5c4)C[C@@H]3CC2)c(C(F)(F)F)c1 [Example 1.28, (E)-1-((3aR,8aS)-2-(1H-benzo[d][1,2,3]triazole-5-carbonyl)octahydropyrrolo[3,4-d]azepin-6(7H)-yl)-3-(4-methoxy-2-(trifluoromethyl)phenyl)prop-2-en-1-one] | 6
10 | COc1cc(/C=C/C(=O)N2C[C@@H]3CN(C(=O)c4ccc5[nH]nnc5c4)C[C@H]3C2)cc(OC(F)(F)F)c1 [Example 15.51, (E)-1-[(3aR,6aR)-5-(1H-benzotriazole-5-carbonyl)-hexahydro-pyrrolo[3,4-c]pyrrol-2-yl]-3-(3-methoxy-5-trifluoromethoxy-phenyl)-prop-2-ene-1-one] | 6
11 | O=C(/C=C/c1ccc(OC(F)(F)F)cc1)N1CC[C@@H]2CN(C(=O)N3CCc4[nH]nnc4C3)C[C@@H]2CC1 [Example 8.01] | 2
12 | O=C1N[C@@H]2CCN(C(=O)N3C[C@H]4CN(C(=O)CCc5ccc(OC(F)(F)F)cc5)C[C@@H]4C3)C[C@H]2O1 [Example 15.55] | 478
13 | Cc1ccc(OCC(=O)N2CC[C@@H]3CN(C(=O)c4ccc5[nH]nnc5c4)C[C@@H]3CC2)c(C2CCN(C)C2)c1 (stereo partly drawn) [Example 1.36, 1-[(3aS,8aR)-2-(1H-benzotriazole-5-carbonyl)-octahydro-pyrrolo[3,4-d]azepin-6-yl]-2-[4-methyl-2-(1-methyl-pyrrolidin-3-yl)-phenoxy]-ethanone] | 7460
14 | O=C(/C=C/c1ccc(OC(F)(F)F)cc1F)N1CC[C@@H]2CN(C(=O)c3ccc4[nH]nnc4c3)C[C@@H]2CC1 [Example 15.39] | 5
15 | O=C(/C=C/c1cccnc1)N1CC[C@@H]2CN(C(=O)c3ccc4[nH]nnc4c3)C[C@@H]2CC1 [Example 15.17] | 3950
16 | O=C(OCc1ccc(OCC(F)(F)F)cc1F)N1CC[C@@H]2CN(C(=O)c3ccc4[nH]nnc4c3)C[C@@H]2CC1 [Example 1.47, (3aS,8aR)-2-(1H-benzotriazole-5-carbonyl)-octahydro-pyrrolo[3,4-d]azepine-6-carboxylic acid 2-fluoro-4-(2,2,2-trifluoro-ethoxy)-benzyl ester] | 2
17 | O=C(/C=C/c1ccc(F)cc1C(F)(F)F)N1CC[C@@H]2CN(C(=O)c3ccc4[nH]nnc4c3)C[C@@H]2CC1 [Example 15.66, (E)-1-((3aR,8aS)-2-(1H-benzo[d][1,2,3]triazole-5-carbonyl)octahydro-pyrrolo[3,4-d]azepin-6(7H)-yl)-3-(4-fluoro-2-(trifluoromethyl)phenyl)-prop-2-en-1-one] | 13
18 | O=C(/C=C/c1cc(F)cc(C(F)(F)F)c1)N1C[C@@H]2CN(C(=O)c3ccc4[nH]nnc4c3)C[C@@H]2C1 [Example 15.02] | 96
19 | O=C(CCc1ccc(OC(F)(F)F)cc1)N1C[C@@H]2CN(C(=O)c3ccc4[nH]c(=O)oc4c3)C[C@H]2C1 [Example 2.03, 6-[(3aR,6aR)-2-[3-[4-(trifluoromethoxy)phenyl]propanoyl]-1,3,3a,4,6,6a-hexahydropyrrolo[3,4-c]pyrrole-5-carbonyl]-3H-1,3-benzoxazol-2-one] | 5
20 | O=C(OCc1cc(Cl)cc(Cl)c1)N1C[C@@H]2CN(C(=O)N3CCc4[nH]nnc4C3)C[C@@H]2C1 [Example 8, (3aR,6aS)-3,5-dichlorobenzyl 5-(4,5,6,7-tetrahydro-1H-[1,2,3]triazolo[4,5-c]pyridine-5-carbonyl)hexahydropyrrolo[3,4-c]pyrrole-2(1H)-carboxylate] | 108
21 | N#Cc1cc(Cl)cc(COC(=O)N2C[C@@H]3CN(C(=O)c4ccc5[nH]nnc5c4)C[C@@H]3C2)c1 [Example 4.24, (3aR,6aS)-3-chloro-5-cyanobenzyl 5-(1H-benzo[d][1,2,3]triazole-5-carbonyl)hexahydropyrrolo[3,4-c]pyrrole-2(1H)-carboxylate] | 56
22 | CC(C)c1cc(C#N)ccc1COC(=O)N1C[C@@H]2CN(C(=O)c3ccc4[nH]nnc4c3)C[C@H]2C1 [Example 4.52, (3aS,6aS)-5-(1H-benzotriazole-5-carbonyl)-hexahydro-pyrrolo[3,4-c]pyrrole-2-carboxylic acid 4-cyano-2-isopropyl-benzyl ester] | 10
23 | O=C(OCc1cc(Cl)cc(Cl)c1)N1C[C@@H]2CCN(C(=O)c3ccc4[nH]nnc4c3)C[C@@H]2C1 (relative stereo) [Example 4.08, cis-3,5-dichlorobenzyl 5-(1H-benzo[d][1,2,3]triazole-5-carbonyl)hexahydro-1H-pyrrolo[3,4-c]pyridine-2(3H)-carboxylate] | 47
24 | O=C(CCc1ccc(F)cc1C(F)(F)F)N1CC[C@@H]2CN(C(=O)c3ccc4[nH]nnc4c3)C[C@@H]2CC1 [Example 17.05, 1-((3aR,8aS)-2-(1H-benzo[d][1,2,3]triazole-5-carbonyl)octahydropyrrolo[3,4-d]azepin-6(7H)-yl)-3-(4-fluoro-2-(trifluoromethyl)phenyl)propan-1-one] | 6
